≈ marks a conversion by molar mass, not a printed value. Where a name gives a salt, the structure may show the parent alone. Read-outs that look alike come from different tables or passages of the source.
How the values were obtained:
[1] = both, rat, in vivo, iv, 4 weeks
Description: A repeated-dose, 4-week toxicity study was conducted in male and female rats, where single, daily IV bolus doses up to 60 mg/kg were given. […] A 28-day toxicity study was also conducted in male and female marmosets, where iclaprim mesylate was infused intravenously over a 20-minute interval.

[2] = tested on: E. faecalis; assay: MIC with/without bovine pulmonary surfactant, E. faecalis; assay type: cell-based, Enterococcus faecalis; settings: for MICRZ, Resazurin: +BPS: 2.5% v/v BPS; for MICRZ, Resazurin / MIC: no BPS; for MIC: Enterococcus faecalis, read-out: MIC, CLSI
Description: (§1) Clinical isolates were identified by the submitting laboratories and confirmed by JMI Laboratories using standard bacteriologic algorithms and methodologies, including Matrix-Assisted Laser Desorption Ionization-Time Of Flight Mass Spectrometry (MALDI-TOF MS). When necessary, MALDI-TOF MS was performed using the Bruker Daltonics MALDI Biotyper (Billerica, Mass., USA), following manufacturer's instructions. Isolates selected were bacterial species commonly associated with pneumonia. […] 2.2 Susceptibility testing
(§2) Antibacterial susceptibility testing was measured by JMI Labs (North Liberty, Iowa, USA). […] These clinical isolates were collected from US (n=4), Mexico (n=2), and Italy (n=1). Susceptibility testing was performed by broth microdilution in accordance with the Clinical and Laboratory and Standards Institute (CLSI) guidelines M07-A10 (2015) and the standard operating procedures at JMI laboratories. Minimum inhibitory concentrations (MICs) were based on CLSI criteria (2015). There are no published breakpoints for iclaprim. E. coli, K. pneumoniae, M. catarrhalis, E. faecalis, and S. aureus were tested in cation-adjusted Mueller-Hinton broth (CA-MHB). S. pneumoniae were tested in CA-MHB supplemented with 2.5-5% lysed horse blood, and H. influenza were tested in Haemophilus test medium. Quality control and interpretation of results were performed in accordance with CLSI M100-S26 (2016) methods. QC ranges for iclaprim were those approved by CLSI and published in M100-S26 (2016). Iclaprim and comparator antibiotic MIC results were within the CLSI published ranges against E. coli ATCC 25922, E. faecalis ATCC 29212, E. faecalis ATCC 33186, H. influenzae ATCC 49247, K. pneumoniae ATCC 700603 (ESBL phenotype), S. aureus ATCC 29213, and S. pneumoniae ATCC 49619. Isolates were tested with MIC panels (ThermoFisher Scientific, Cleveland, Ohio, USA) of comparator antibiotics (daptomycin and levofloxacin).
(§3) Because bovine pulmonary surfactant can introduce cloudiness to the MIC testing media, antimicrobial growth inhibition was also evaluated using the colorimetric metabolic indicator resazurin (Camlab Ltd., Cambridge, UK). […] S. pneumoniae panels were omitted from resazurin analysis because the color change was obscured by the lysed horse blood present in the test medium. Growth inhibition was then evaluated as a visible color change from blue (no growth) to pink (robust growth) and recorded as a MICRZ value.
(§4) The MICs of iclaprim, levofloxacin, and daptomycin were determined against Gram-positive and Gram-negative isolates.
(§5) A new vial of bovine pulmonary surfactant (BPS; Survanta®; Abbott Laboratories, Columbus, Ohio) was utilized for each independent experiment. Each vial was mixed thoroughly and a 100 μL aliquot was spread on an agar plate, which was incubated overnight to confirm sterility. […] The concentration of surfactant was expressed in terms of percent volume of Survanta® suspension, which consisted of phospholipid (25 mg/mL) and surfactant proteins (<1 mg/mL) in 0.9% sodium chloride solution (Goerke, 1998). MICs of daptomycin were determined in CAMHB with the Ca^2+ content adjusted to 50 mg/L.

[3] = tested on: M. catarrhalis; assay: MIC with/without bovine pulmonary surfactant, M. catarrhalis; assay type: cell-based, Moraxella catarrhalis; settings: for MICRZ, Resazurin: +BPS: 2.5% v/v BPS
Description: as §1, §2, §3, §4, §5

[4] = tested on: S. aureus; assay: MIC with/without bovine pulmonary surfactant, S. aureus; assay type: cell-based, Staphylococcus aureus; settings: for MICRZ, Resazurin: +BPS: 2.5% v/v BPS; for MICRZ, Resazurin: no BPS
Description: as §1, §2, §3, §4, §5

[5] = tested on: S. pneumoniae; assay: MIC with/without bovine pulmonary surfactant, S. pneumoniae; assay type: cell-based; settings: Streptococcus pneumoniae
Description: as §1, §2, §3, §4, §5

[6] = tested on: common Gram-positive and Gram-negative respiratory bacteria; assay: Pulmonary surfactant interaction, overall effect on MIC and MICRZ; assay type: cell-based; settings: respiratory Gram-positive strains and clinical isolates; read-out: MIC and MICRZ in the presence of 2.5% BPS
Description: Antibacterial susceptibility testing was measured by JMI Labs (North Liberty, Iowa, USA). […] These clinical isolates were collected from US (n=4), Mexico (n=2), and Italy (n=1). Susceptibility testing was performed by broth microdilution in accordance with the Clinical and Laboratory and Standards Institute (CLSI) guidelines M07-A10 (2015) and the standard operating procedures at JMI laboratories. Minimum inhibitory concentrations (MICs) were based on CLSI criteria (2015). There are no published breakpoints for iclaprim. E. coli, K. pneumoniae, M. catarrhalis, E. faecalis, and S. aureus were tested in cation-adjusted Mueller-Hinton broth (CA-MHB). […]
Because bovine pulmonary surfactant can introduce cloudiness to the MIC testing media, antimicrobial growth inhibition was also evaluated using the colorimetric metabolic indicator resazurin (Camlab Ltd., Cambridge, UK). […] Growth inhibition was then evaluated as a visible color change from blue (no growth) to pink (robust growth) and recorded as a MICRZ value.
as §4
A new vial of bovine pulmonary surfactant (BPS; Survanta®; Abbott Laboratories, Columbus, Ohio) was utilized for each independent experiment. […] MICs of daptomycin were determined in CAMHB with the Ca^2+ content adjusted to 50 mg/L. […]

[7] = S. aureus Clinical Isolate 825189

## COc1cc(Cc2cnc(N)nc2N)c2c(c1OC)OC(C1CC1)C=C2 (racemic) [iclaprim mesylate, 5-[(2RS)-2-cyclopropyl-7,8-dimethoxy-2Hchromen-5-ylmethyl] pyrimidine-2,4-diamine methanesulfonate]
[1]
  dosages with histopathological changes at the injection sites: ≥ 10 mg/kg/day

## CCCCCCCCCC(=O)N[C@@H](Cc1c[nH]c2ccccc12)C(=O)N[C@H](CC(N)=O)C(=O)N[C@@H](CC(=O)O)C(=O)N[C@@H]1C(=O)NCC(=O)N[C@@H](CCCN)C(=O)N[C@@H](CC(=O)O)C(=O)N[C@H](C)C(=O)N[C@@H](CC(=O)O)C(=O)NCC(=O)N[C@H](CO)C(=O)N[C@@H]([C@H](C)CC(=O)O)C(=O)N[C@@H](CC(=O)c2ccccc2N)C(=O)O[C@@H]1C [Daptomycin]
[2]; E. faecalis ATCC 29212
  MICRZ, Resazurin: +BPS: >16 µg/mL
  MICRZ, Resazurin: 2 µg/mL
[2]; E. faecalis ATCC 33186
  MICRZ, Resazurin: +BPS: >16 µg/mL
  MICRZ, Resazurin: 1 µg/mL
[2]; ATCC29212, E. faecalis ATCC 29212
  MIC: 2 µg/mL (≈ 1.23 µM)
[2]; ATCC33186, E. faecalis ATCC 33186
  MIC: 1 µg/mL (≈ 0.617 µM)
[3]; M. catarrhalis Clinical Isolate 893806
  MICRZ, Resazurin: +BPS: >16 µg/mL
[3]; M. catarrhalis Clinical Isolate 893806, no BPS
  MICRZ, Resazurin: 8 µg/mL
[3]; M. catarrhalis Clinical Isolate 893807
  MICRZ, Resazurin: +BPS: >16 µg/mL
[3]; M. catarrhalis Clinical Isolate 893807, no BPS
  MICRZ, Resazurin: 8 µg/mL
[3]; Moraxella catarrhalis, M. catarrhalis Clinical Isolate 893806, no BPS
  MIC: 8 µg/mL (≈ 4.94 µM)
[4]; S. aureus ATCC 29213
  MICRZ, Resazurin: +BPS: >16 µg/mL
  MICRZ, Resazurin: 0.5 µg/mL
[4]; [7]
  MICRZ, Resazurin: +BPS: >16 µg/mL
  MICRZ, Resazurin: 0.25 µg/mL
[5]; ATCC49619, S. pneumoniae ATCC 49619, 2.5% v/v BPS, read-out: MIC, CLSI: +BPS
  MIC: 16 µg/mL (≈ 9.87 µM)
[5]; ATCC49619, S. pneumoniae ATCC 49619, no BPS, read-out: MIC, CLSI
  MIC: 0.25 µg/mL (≈ 0.154 µM)
[5]; S. pneumoniae Clinical Isolate 818757, 2.5% v/v BPS, read-out: MIC, CLSI: +BPS
  MIC: 16 µg/mL (≈ 9.87 µM)
[5]; S. pneumoniae Clinical Isolate 818757, no BPS, read-out: MIC, CLSI
  MIC: 0.25 µg/mL (≈ 0.154 µM)
[5]; S. pneumoniae Clinical Isolate 825175, 2.5% v/v BPS, read-out: MIC, CLSI: +BPS
  MIC: 16 µg/mL (≈ 9.87 µM)
[5]; S. pneumoniae Clinical Isolate 825175, no BPS, read-out: MIC, CLSI
  MIC: 0.25 µg/mL (≈ 0.154 µM)
[6]
  MIC: > 16 µg/mL

From US10080751B2, “Systems and methods for treating bacterial infection” (priority 2016, dated 2018)
